# System: 287954-098-R-J1 tumor spheroid viability
# Experiment: Anticancer human tumor 287954-098-R-J1 patient-derived Ewing sarcoma cell line growth inhibition
# Settings: spheroids with HUVEC and MSC; for IC50: curve of first compound; for viability, T/C: stronger effect = lower value
# In short: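 Single agents and combinations were tested on spheroids built from tumor cells plus HUVEC and hMSC, at half-log dilutions starting at or near clinical Cmax, else 10 microM; final DMSO 0.25% (v/v).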
# 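Further: spheroids exposed to compound for 7 days before viability readout.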
# 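Wherever viability, T/C is given: luminescent signal taken as surrogate of viable cell content; 100% = DMSO vehicle control viability and lower means growth inhibition.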
structure (smiles),measurement,setting,value
O=C(c1cc(Cc2n[nH]c(=O)c3ccccc23)ccc1F)N1CCN(C(=O)C2CC2)CC1 + COc1cc2c(cc1O)CCNC21CSC2c3c(OC(C)=O)c(C)c4c(c3C(COC1=O)N1C(O)C3Cc5cc(C)c(OC)c(O)c5C(C21)N3C)OCO4,IC50,second compound 30 pM,9.18 µM
same,IC50,second compound 94.9 pM,10.5 µM
same,IC50,second compound 0.0003 µM,1.46 µM
same,IC50,second compound 0.000949 µM,< 0.0949 µM
same,IC50,second compound 0.003 µM,< 0.0949 µM
same,"viability, T/C","second compound 30 pM, first compound 0.0949 µM",112%
same,"viability, T/C","second compound 30 pM, first compound 0.3 µM",108%
same,"viability, T/C","second compound 30 pM, first compound 0.949 µM",99.5%
same,"viability, T/C","second compound 30 pM, first compound 3 µM",112%
same,"viability, T/C","second compound 30 pM, first compound 9.49 µM",48.3%
same,"viability, T/C","second compound 30 pM, first compound 30 µM",4.03%
same,"viability, T/C","second compound 94.9 pM, first compound 0.0949 µM",114%
same,"viability, T/C","second compound 94.9 pM, first compound 0.3 µM",114%
same,"viability, T/C","second compound 94.9 pM, first compound 0.949 µM",109%
same,"viability, T/C","second compound 94.9 pM, first compound 3 µM",109%
same,"viability, T/C","second compound 94.9 pM, first compound 9.49 µM",54.4%
same,"viability, T/C","second compound 94.9 pM, first compound 30 µM",2.51%
same,"viability, T/C","second compound 0.0003 µM, first compound 0.0949 µM",98.8%
same,"viability, T/C","second compound 0.0003 µM, first compound 0.3 µM",102%
same,"viability, T/C","second compound 0.0003 µM, first compound 0.949 µM",68%
same,"viability, T/C","second compound 0.0003 µM, first compound 3 µM",18.6%
same,"viability, T/C","second compound 0.0003 µM, first compound 9.49 µM",0.6%
same,"viability, T/C","second compound 0.0003 µM, first compound 30 µM",0.57%
same,"viability, T/C","second compound 0.000949 µM, first compound 0.0949 µM",0.38%
same,"viability, T/C","second compound 0.000949 µM, first compound 0.3 µM",0.39%
same,"viability, T/C","second compound 0.000949 µM, first compound 0.949 µM",0.26%
same,"viability, T/C","second compound 0.000949 µM, first compound 3 µM",0.18%
same,"viability, T/C","second compound 0.000949 µM, first compound 9.49 µM",0.07%
same,"viability, T/C","second compound 0.000949 µM, first compound 30 µM",0.23%
same,"viability, T/C","second compound 0.003 µM, first compound 0.0949 µM",0.32%
same,"viability, T/C","second compound 0.003 µM, first compound 0.3 µM",0.31%
same,"viability, T/C","second compound 0.003 µM, first compound 0.949 µM",0.3%
same,"viability, T/C","second compound 0.003 µM, first compound 3 µM",0.29%
same,"viability, T/C","second compound 0.003 µM, first compound 9.49 µM",0.28%
same,"viability, T/C","second compound 0.003 µM, first compound 30 µM",0.35%
Cc1cc(C)c(CNC(=O)c2cc(-c3ccc(CN4CCOCC4)cc3)cc3c2cnn3C2CCCC2)c(=O)[nH]1 + Cn1nnc2c(C(N)=O)ncn2c1=O,IC50,second compound 1 µM,> 10 µM
same,IC50,second compound 3.16 µM,> 10 µM
same,IC50,second compound 10 µM,> 10 µM
same,IC50,second compound 31.6 µM,> 10 µM
same,IC50,second compound 100 µM,> 10 µM
same,"viability, T/C","second compound 1 µM, first compound 0.0316 µM",104%
same,"viability, T/C","second compound 1 µM, first compound 0.1 µM",100%
same,"viability, T/C","second compound 1 µM, first compound 0.316 µM",100%
same,"viability, T/C","second compound 1 µM, first compound 1 µM",103%
same,"viability, T/C","second compound 1 µM, first compound 3.16 µM",105%
same,"viability, T/C","second compound 1 µM, first compound 10 µM",115%
same,"viability, T/C","second compound 3.16 µM, first compound 0.0316 µM",105%
same,"viability, T/C","second compound 3.16 µM, first compound 0.1 µM",107%
same,"viability, T/C","second compound 3.16 µM, first compound 0.316 µM",100%
same,"viability, T/C","second compound 3.16 µM, first compound 1 µM",108%
same,"viability, T/C","second compound 3.16 µM, first compound 3.16 µM",107%
same,"viability, T/C","second compound 3.16 µM, first compound 10 µM",108%
same,"viability, T/C","second compound 10 µM, first compound 0.0316 µM",110%
same,"viability, T/C","second compound 10 µM, first compound 0.1 µM",108%
same,"viability, T/C","second compound 10 µM, first compound 0.316 µM",107%
same,"viability, T/C","second compound 10 µM, first compound 1 µM",106%
same,"viability, T/C","second compound 10 µM, first compound 3.16 µM",99.3%
same,"viability, T/C","second compound 10 µM, first compound 10 µM",111%
same,"viability, T/C","second compound 31.6 µM, first compound 0.0316 µM",108%
same,"viability, T/C","second compound 31.6 µM, first compound 0.1 µM",117%
same,"viability, T/C","second compound 31.6 µM, first compound 0.316 µM",109%
same,"viability, T/C","second compound 31.6 µM, first compound 1 µM",105%
same,"viability, T/C","second compound 31.6 µM, first compound 3.16 µM",108%
same,"viability, T/C","second compound 31.6 µM, first compound 10 µM",105%
same,"viability, T/C","second compound 100 µM, first compound 0.0316 µM",108%
same,"viability, T/C","second compound 100 µM, first compound 0.1 µM",113%
same,"viability, T/C","second compound 100 µM, first compound 0.316 µM",111%
same,"viability, T/C","second compound 100 µM, first compound 1 µM",107%
same,"viability, T/C","second compound 100 µM, first compound 3.16 µM",96.2%
same,"viability, T/C","second compound 100 µM, first compound 10 µM",104%
